Results reported in patent US12102667B2, “Polypeptides and antibiotics against gram-negative bacterium comprising the same” (priority 2021, dated 2024).
Read-outs that look alike come from different tables or passages of the source.

Legend:
[1] = system: E. coli; settings: cited from earlier work
[2] = system: K. pneumoniae; settings: K. pneumoniae CCARM 10143; cited from earlier work
[3] = system: Acinetobacter baumannii (ATCC19606); experiment: Killing activity of endolysin, in vitro test; assay type: cell-based; settings: 2 μM, 37° C., 2 hours, 20 mM Tris-Cl pH 7.5
Method: (§1) For this, endolysin EC340 at a concentration of 2 μM and each test bacterium were added to reaction buffer (20 mM Tris-Cl, pH 7.5) so that the final concentration was to be 200 μl, and were left at 37° C. for 2 hours. After 2 hours, the number of colonies of Acinetobacter baumannii, Pseudomonas aeruginosa and Escherichia coli was confirmed, and the result was shown in FIG. 3.

[4] = system: Pseudomonas aeruginosa (ATCC 13388); experiment: Killing activity of endolysin, in vitro test; assay type: cell-based; settings: 2 μM, 37° C., 2 hours, 20 mM Tris-Cl pH 7.5
Method: as §1

[5] = system: E. coli; experiment: Antibacterial activity analysis (colony count after 2 hours in buffer); assay type: cell-based, Escherichia coli; settings: 2 μM
Method: (§2) The antibacterial activity of the purified protein was tested for E. coli and various K. pneumoniae strains. The bacterium were grown to an exponential phase (OD600=0.5) and harvested by centrifugation at 12,000×g for 3 minutes. Then, the pellets were washed with reaction buffer solution (20 mM Tris-HCl, pH 7.5) and diluted to about 10^6 cells/ml in the buffer solution. Then, 100 μl bacterial suspension was mixed with the purified endolysin of 100 μl in the reaction buffer solution and incubated at 37° C. for 2 hours. Finally, the mixture was diluted with PBS and loaded on an LB plate. After culturing at 37° C. overnight, the bacterial colonies were counted. All the analysis was performed in triplicate.
(§3) The same reaction was performed for the selected subject bacterium in 20 mM HEPES-NaOH, 150 mM NaCl [pH 7.4], and the unique antibacterial activity of Tris and dependence of endolysin for turgor pressure were excluded (FIG. 10a and FIG. 10b). […] The bacterial cells grown geometrically were cultured with 2 μM endolysin in low tonicity buffers (20 mM Tris-HCl, pH 7.5 or 20 mM HEPES, pH 7.5) or high tonicity buffers (buffer solution comprising 150 mM NaCl) at 37° C. for 2 hours. The cells treated with storage buffer solution (20 mM Tris-HCl, pH 7.5, 150 mM NaCl buffer solution (pH 7.5)) were used as a negative control group. The dotted line represents the detection limit (1 Log CFU/ml).
as §1

[6] = system: K. pneumoniae; experiment: as above; assay type: cell-based, Klebsiella pneumoniae; settings: 2 μM
Method: as §2, §3

[7] = system: E. coli; experiment: Checkerboard assay (MIC in combination, FIC index); assay type: cell-based, Escherichia coli; settings: E. coli ATCC8738
Method: LNT113 was vertically diluted 2-fold and the antibiotic was serially diluted horizontally in a 96-well plate. Bacterium at a concentration of 10^6 CFU/ml were added to each well in a CAA medium. […] The fractional inhibitory concentration (FIC) for the LNT113 or antibiotic was calculated by dividing the MIC of two drugs by combining it with the MIC of each drug alone. […] The FICI was considered as a synergistic effect ≤0.5, an additive >0.5 ˜≤1, an independent effect (indifference)>1.0 ˜≤2, and an antagonistic effect (antagonism) >2.

[8] = system: E. coli ATCC 8739; experiment: Zymogram assay; assay type: biochemical, Escherichia coli; settings: 3 μg purified endolysin, gel with autoclaved E. coli ATCC 8739
Method: Zymogram assay was performed with some modifications of the previously described method (Khakhum et al., 2016). In other words, an overnight culture of E. coli ATCC 8739 was harvested, washed with phosphate buffered solution (PBS) once, and then harvested by centrifugation at 4,000×g for 15 minutes. Then, the pellets were resuspended in 3 ml of deionized water. The cells were autoclaved and added to a 15% SDS-PAGE gel prior to polymerization. Then, 3 μg of purified endolysin (EC340, mtEC340 or LNT113) was mixed with 2× sample buffer (0.5 mM Tris-HCl, pH 6.8, 20% glycerol, 0.2% bromophenol blue) and loaded on SDS-PAGE. After electrophoresis, the gel was washed with deionized water for 1 hour and incubated in reaction buffer (1% Triton X-100, 20 mM Tris-HCl, pH 7.5) at a room temperature.

CO/N=C(\C(=O)N[C@@H]1C(=O)N2C(C(=O)O)=C(COC(C)=O)CS[C@H]12)c1csc(N)n1 [Cefotaxime]
MIC of antibiotics ([1]; E. coli CCARM 1A746): 128 µg/mL | MIC of antibiotics ([1]; E. coli CCARM 1B684): 0.25 µg/mL | MIC of antibiotics [2]: 16 µg/mL

CC(=O)OCC1=C(C(=O)O)N2C(=O)[C@@H](NC(=O)Cc3cccs3)[C@H]2SC1 [Cephalothin]
MIC of antibiotics ([1]; E. coli CCARM 1A746): ≥128 µg/mL | MIC of antibiotics ([1]; E. coli CCARM 1B684): 64 µg/mL | MIC of antibiotics [2]: ≥128 µg/mL

O=C(O)c1cn(C2CC2)c2cc(N3CCNCC3)c(F)cc2c1=O [Ciprofloxacin]
MIC of antibiotics ([1]; E. coli CCARM 1A746): 128 µg/mL | MIC of antibiotics ([1]; E. coli CCARM 1B684): 64 µg/mL | MIC of antibiotics [2]: ≤0.25 µg/mL

Gentamicin
MIC of antibiotics ([1]; E. coli CCARM 1A746): ≥128 µg/mL | MIC of antibiotics ([1]; E. coli CCARM 1B684): 128 µg/mL | MIC of antibiotics [2]: ≥128 µg/mL

Trimethoprim-sulfamethoxazole
MIC of antibiotics ([1]; E. coli CCARM 1A746): ≥128 µg/mL | MIC of antibiotics [2]: ≥32 µg/mL

B1: EC340: endolysin of E. coli bacteriophage PBEC131 (EC340-M-11-12), 162 amino acids (protein)
chain: VSRNISNNGIKFTAAFEGFRGTAYRATPNEKYLTIGYGHYGPDVTPGKTITPGQGLLLLNRDMAKAVAAVDAAAHHSLTQAQFDAVCDLVYNAGAGVIAATTGTGKALRSGDIATLRAKLALFINQNGKPLLGLRRRTAGRLALFDGKPWQEAEAIGRAVKG
modifications: synthetic_EC340
notes: endolysin of E. coli bacteriophage PBEC131 (EC340-M-11-12), 162 amino acids
killing activity [3]: had the killing activity | killing activity [4]: had the killing activity | antibacterial activity (number of bacterium) ([5]; E. coli ATCC8739, ATCC25922, CCARM1A746, CCARM1B684, 2 hours, Tris-HCl pH 7.5): excellent antibacterial activity | effect of adding NaCl on antibacterial activity ([5]; E. coli ATCC 8739, Tris or Hepes buffer with 150 mM NaCl): almost inactivated | killing activity ([5]; Escherichia coli (ATCC 8739), 37° C., 2 hours, 20 mM Tris-Cl pH 7.5): had the killing activity | antibacterial activity (number of bacterium) ([6]; K. pneumoniae ATCC700603, KCTC2208, CCARM10143, F85, 2 hours, Tris-HCl pH 7.5): excellent antibacterial activity | effect of adding NaCl on antibacterial activity ([6]; K. pneumoniae KCTC 2208, Tris or Hepes buffer with 150 mM NaCl): almost inactivated | MIC of endolysin combined with colistin: EC340 ([7]; Colistin 0): >128 µg/mL | MIC of endolysin combined with colistin: EC340 ([7]; Colistin 0.0625): 32 µg/mL | MIC of endolysin combined with colistin: EC340 ([7]; Colistin 0.125): 16 µg/mL | MIC of endolysin combined with colistin: EC340 ([7]; Colistin 0.25): <2 µg/mL | enzymatic activity in zymogram [8]: enzymatic activity was observed
